Source: patent US6380396B1, “Quaternary ammonium compounds” (Pfizer Inc., priority 1997, dated 2002)

Key:
human NK1 receptor = target: T1, human NK1 receptor (Homo sapiens, UniProt P25103); assay: inhibition of [3H]-Substance P binding to membranes from human IM9 cell line
T1 construct: membranes prepared from the human IM9 cell line expressing the human NK1 receptor; endogenous in cells; host or cells: human IM9 cell line (membranes)
From the text: The affinity of the compounds of the formula (I) for the human NK1 receptor can be determined in vitro by determining their ability to inhibit [^3H]-Substance P binding to membranes prepared from the human IM9 cell line expressing the human NK1 receptor using a modification of the method described in McLean, S. et al, J. Pharm.Exp.Ther., 267, 472-9 (1993) in which whole cells were used.

human NK2 receptor = target: T2, human NK2 receptor (Homo sapiens, UniProt P21452); assay: competition with [3H]-NKA for binding to membranes from Chinese hamster ovary cells expressing the cloned receptor; conditions: CHO cell membranes, 90 min, 25° C.
T2 construct: expressed in transfected cells; host or cells: Chinese hamster ovary cells (membranes)
T2 sequence (P21452 1-398): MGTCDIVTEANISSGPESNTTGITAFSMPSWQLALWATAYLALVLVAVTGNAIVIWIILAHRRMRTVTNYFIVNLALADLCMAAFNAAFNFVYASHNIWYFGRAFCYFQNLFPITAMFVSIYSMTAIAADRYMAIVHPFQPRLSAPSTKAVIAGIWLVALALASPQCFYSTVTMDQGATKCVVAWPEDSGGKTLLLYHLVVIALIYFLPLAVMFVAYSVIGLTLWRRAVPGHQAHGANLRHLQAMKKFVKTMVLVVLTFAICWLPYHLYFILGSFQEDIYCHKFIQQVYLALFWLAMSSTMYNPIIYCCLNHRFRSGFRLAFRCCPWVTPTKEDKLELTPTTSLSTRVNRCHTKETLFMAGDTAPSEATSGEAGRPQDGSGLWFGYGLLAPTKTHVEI
Experimental: The affinity of the compounds of formula (I) for the human NK2 receptor can be determined in vitro by determining their ability to compete with [^3H]-NKA (neurokinin A) for binding to membranes prepared from Chinese hamster ovary cells expressing the cloned human NK2 receptor. In this method, washed Chinese hamster ovary cell membranes are prepared as described for the previous method where IM9 cells are used instead. The membranes are incubated (90 min, 25° C.) with [^3H]-NKA and with a range of concentrations of the test compound. Non-specific binding is determined in the presence of 10 μM NKA.

T1 sequence (P25103 whole entry): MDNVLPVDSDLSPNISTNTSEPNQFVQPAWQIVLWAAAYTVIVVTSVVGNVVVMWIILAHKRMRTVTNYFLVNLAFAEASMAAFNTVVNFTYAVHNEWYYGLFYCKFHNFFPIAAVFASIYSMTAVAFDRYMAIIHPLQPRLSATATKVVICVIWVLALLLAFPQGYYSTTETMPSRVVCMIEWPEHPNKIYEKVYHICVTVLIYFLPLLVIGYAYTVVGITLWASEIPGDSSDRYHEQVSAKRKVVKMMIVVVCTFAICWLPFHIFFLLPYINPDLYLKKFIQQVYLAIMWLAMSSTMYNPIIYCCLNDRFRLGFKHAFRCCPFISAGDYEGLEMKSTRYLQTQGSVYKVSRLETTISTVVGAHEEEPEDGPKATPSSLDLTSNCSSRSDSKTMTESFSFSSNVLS

Structure (SMILES) | IC50 (human NK1 receptor) [nM] | IC50 (human NK2 receptor) [nM]
O=C(c1cccc2c1OCC2)c1nccn1CC(CC[N+]12CCC(c3ccccc3)(CC1)CC2)c1ccc(Cl)c(Cl)c1 (stereo not shown) [Example 5] | 8 | 11
O=C(c1ccc2ccccc2c1)c1nccn1CC(CC[N+]12CCC(c3ccccc3)(CC1)CC2)c1ccc(Cl)c(Cl)c1 (stereo not shown) [Example 6] | 9 | 96
Cc1cccc(C(=O)c2nccn2CC(CC[N+]23CCC(c4ccccc4)(CC2)CC3)c2ccc(Cl)c(Cl)c2)c1C (stereo not shown) [Example 2] | 0.6 | 4
O=C(c1cccc2c1CCCC2)c1nccn1C[C@@H](CC[N+]12CCC(c3ccccc3)(CC1)CC2)c1ccc(Cl)c(Cl)c1 [Example 18, 4-Phenyl-1-(3(S)-[3,4-dichlorophenyl]-4-[2-(1,2,3,4-tetrahydro-5-naphthoyl)imidazol-1-yl]butyl)quinuclidinium methanesulphonate] | 123 | 3
O=C(c1cccc2c1CCCC2)c1nccn1C[C@H](CC[N+]12CCC(c3ccccc3)(CC1)CC2)c1ccc(Cl)c(Cl)c1 [Example 19, 4-Phenyl-1-(3(R)-[3,4-dichlorophenyl]-4-[2-(1,2.3,4-tetrahydro-5-naphthoyl)imidazol-1-yl]butyl)quinuclidinium methanesulphonate] | 2 | 24
